Source: patent publication US9107926B2, “Mutant selectivity and combinations of a phosphoinositide 3-kinase inhibitor compound and chemotherapeutic agents for the treatment of cancer” (Genentech, Inc., priority 2012, dated 2015)

How the values were obtained:
EFO21 = experiment: CellTiter-Glo cell proliferation assay; format: cell-based; details: Homo sapiens, EFO-21, Ovarian, PTEN
LS-180 = experiment: CellTiter-Glo cell proliferation assay; format: cell-based; details: Homo sapiens, LS180, Colon, KRAS/HET.1047H > R
Calu-6 = experiment: CellTiter-Glo cell proliferation assay; format: cell-based; details: Homo sapiens, Lung(NSCLC), K-RAS
HDQ-P1 = experiment: CellTiter-Glo cell proliferation assay; format: cell-based; details: Homo sapiens, Breast, WT
Protocol: (§2) Cell Culture Medium: RPMI or DMEM high glucose, 10% Fetal Bovine Serum, 2 mM L-Glutamine, P/S. Incubate O/N (overnight) at 37° C., 5% CO2.
(§3) Drug Addition to Cells, Cell Plate (1:10 dilution): Add 6 μl of media+compound directly to cells (54 μl of media on the cells already). Incubate 3 days at 37° C., 5% CO2 in an incubator that will not be opened often.
(§4) Day 5—Develop Plates, Thaw Cell Titer Glo Buffer at room temperature: Remove Cell Plates from 37° C. and equilibrate to room temperature for about 30 minutes. Add Cell Titer-Glo® Buffer to Cell Titer-Glo® Substrate (bottle to bottle). Add 30 μl Cell Titer-Glo® Reagent (Promega cat.#G7572) to each well of cells. Place on plate shaker for about 30 minutes. Read luminescence on Analyst HT Plate Reader (half second per well).

PI3K alpha H1047R mutant = PI3K alpha H1047R mutant (Homo sapiens, UniProt P42336, H1047R); details: relative to PI3K alpha
Protocol: After an incubation time of 30 minutes at room temperature, the reactions were stopped by the addition of GRP-1 and PIP3-TAMRA probe (Echelon-Inc., Salt Lake City, Utah.) 100 nM and 5 nM final concentrations respectively. Read with standard cut-off filters for the rhodamine fluorophore (λex=530 nm; λem=590 nm) in 384-well black low volume Proxiplates® (PerkinElmer, Wellesley, Mass.) Fluorescence polarization values were plotted as a function of the protein concentration. EC50 values were obtained by fitting the data to a four-parameter equation using KaleidaGraph® software (Synergy software, Reading, Pa.). This experiment also establishes the appropriate protein concentration to use in subsequent competition experiments with inhibitors.
After an incubation time of 30 minutes at room temperature, the reactions were stopped by the addition of GRP-1 and PIP3-TAMRA probe (Echelon-Inc., Salt Lake City, Utah.) 100 nM and 5 nM final concentrations respectively.
The compound was serially diluted in 100% DMSO. The kinase reaction was incubated for 1 h at room temperature, and the reaction was terminated by the addition of PBS. IC50 values were subsequently determined using sigmoidal dose-response curve fit (variable slope).

H23 = experiment: CellTiter-Glo cell proliferation assay; format: cell-based; details: Homo sapiens, NCI-H23, Lung(NSCLC), K-RAS
H441 = experiment: CellTiter-Glo cell proliferation assay; format: cell-based; details: Homo sapiens, NCI-H441, Lung(NSCLC), K-RAS
H1568 = experiment: CellTiter-Glo cell proliferation assay; format: cell-based; details: NCI-H1568, Lung(NSCLC), WT
CAL-148 = experiment: CellTiter-Glo cell proliferation assay; format: cell-based; details: Homo sapiens, Breast, Kinase(HET.1047H > R)/-PTEN
Protocol: as §2, §3, §4

[1] = test system: SW48 PIK3CA H1047R knock-in mutant subclone; experiment: four day CellTiter-Glo viability assay, SW48 isogenic cell line set; details: Homo sapiens, SW48, 96 h, read-out: Viability EC50
Text: SW48 parental cells and knock-in mutant subclones harboring common PIK3CA hotspot mutations E545K or H1047R were obtained from Horizon Discovery.

DLD-1 = experiment: CellTiter-Glo cell proliferation assay; format: cell-based; details: Homo sapiens, Colon, KRAS/HET.545E > K
Caov3 = experiment: CellTiter-Glo cell proliferation assay; format: cell-based; details: Homo sapiens, Caov-3, Ovarian, WT
HOP18 = experiment: CellTiter-Glo cell proliferation assay; format: cell-based; details: Homo sapiens, HOP-18, Lung(NSCLC), K-RAS
BT549 = experiment: CellTiter-Glo cell proliferation assay; format: cell-based; details: Homo sapiens, BT-549, Breast, PTEN
H292 = experiment: CellTiter-Glo cell proliferation assay; format: cell-based; details: Homo sapiens, NCI-H292, Lung(NSCLC), K-RAS
H661 = experiment: CellTiter-Glo cell proliferation assay; format: cell-based; details: Homo sapiens, NCI-H661, Lung(NSCLC), WT
SW403 = experiment: CellTiter-Glo cell proliferation assay; format: cell-based; details: Homo sapiens, SW-403, Colon, KRAS/HET.546Q > K
[2] = test system: HCC1954.x1 breast tumor xenografts; experiment: In vivo mouse tumor xenograft efficacy; set-up: species or system mice; details: for % TGI@ day 21: QD x 21, PO
Protocol: The term uL means microliter.
(§1) Xenografts were initiated with cancer cells. […] Volume was calculated using the formula: […]

SW948 = experiment: CellTiter-Glo cell proliferation assay; format: cell-based; details: Homo sapiens, Colon, KRAS/HOM.542E > K
AU565 = experiment: CellTiter-Glo cell proliferation assay; format: cell-based; details: Homo sapiens, Breast, HER2 Amplified
HCC-1419 = experiment: CellTiter-Glo cell proliferation assay; format: cell-based; details: Homo sapiens, HCC1419, Breast, WT
A2058 = experiment: CellTiter-Glo cell proliferation assay; format: cell-based; details: Homo sapiens, Melanoma, PTEN/B-Raf
OVCAR3 = experiment: CellTiter-Glo cell proliferation assay; format: cell-based; details: Homo sapiens, OVCAR-3, Ovarian, WT
EVSA-T = experiment: CellTiter-Glo cell proliferation assay; format: cell-based; details: Homo sapiens, Breast, PTEN
[3] = test system: PC3 prostate cancer tumor xenografts; experiment: In vivo mouse tumor xenograft efficacy; set-up: species or system mice
Protocol: as §1

[4] = test system: MCF-7 neo/HER2 breast cancer tumor xenografts; experiment: In vivo mouse tumor xenograft efficacy; set-up: species or system mice; details: for % TGI@ day 21: QD
Protocol: as §1

[5] = test system: HM-7 colorectal cancer tumor xenografts; experiment: In vivo mouse tumor xenograft efficacy; set-up: species or system mice
Protocol: as §1

[6] = test system: 22RV1 prostate cancer tumor xenografts; experiment: In vivo mouse tumor xenograft efficacy; set-up: species or system mice; details: PO daily (QD), 24 days
Protocol: as §1

[7] = test system: KPL4 breast tumor xenografts; experiment: In vivo mouse tumor xenograft efficacy; set-up: species or system mice
Protocol: as §1

[8] = test system: 537 MEL melanoma cancer tumor xenografts; experiment: In vivo mouse tumor xenograft efficacy; set-up: species or system mice; details: PO daily (QD), 21 days
Protocol: as §1

[9] = test system: NCI-H1975 non-small cell lung cancer (NSCLC) tumor xenografts; experiment: In vivo mouse tumor xenograft efficacy; set-up: species or system mice; details: PO daily (QD), 24 day treatment period; versus vehicle
Protocol: as §1

C32 = experiment: CellTiter-Glo cell proliferation assay; format: cell-based; details: Homo sapiens, Melanoma, PTEN/B-Raf
MDST8 = experiment: CellTiter-Glo cell proliferation assay; format: cell-based; details: Colon, PTEN/B-Raf
HOP62 = experiment: CellTiter-Glo cell proliferation assay; format: cell-based; details: Homo sapiens, HOP-62, Lung(NSCLC), K-RAS
HCC-1143 = experiment: CellTiter-Glo cell proliferation assay; format: cell-based; details: Homo sapiens, HCC1143, Breast, WT

Sequence of PI3K alpha H1047R mutant (P42336 whole entry H1047R): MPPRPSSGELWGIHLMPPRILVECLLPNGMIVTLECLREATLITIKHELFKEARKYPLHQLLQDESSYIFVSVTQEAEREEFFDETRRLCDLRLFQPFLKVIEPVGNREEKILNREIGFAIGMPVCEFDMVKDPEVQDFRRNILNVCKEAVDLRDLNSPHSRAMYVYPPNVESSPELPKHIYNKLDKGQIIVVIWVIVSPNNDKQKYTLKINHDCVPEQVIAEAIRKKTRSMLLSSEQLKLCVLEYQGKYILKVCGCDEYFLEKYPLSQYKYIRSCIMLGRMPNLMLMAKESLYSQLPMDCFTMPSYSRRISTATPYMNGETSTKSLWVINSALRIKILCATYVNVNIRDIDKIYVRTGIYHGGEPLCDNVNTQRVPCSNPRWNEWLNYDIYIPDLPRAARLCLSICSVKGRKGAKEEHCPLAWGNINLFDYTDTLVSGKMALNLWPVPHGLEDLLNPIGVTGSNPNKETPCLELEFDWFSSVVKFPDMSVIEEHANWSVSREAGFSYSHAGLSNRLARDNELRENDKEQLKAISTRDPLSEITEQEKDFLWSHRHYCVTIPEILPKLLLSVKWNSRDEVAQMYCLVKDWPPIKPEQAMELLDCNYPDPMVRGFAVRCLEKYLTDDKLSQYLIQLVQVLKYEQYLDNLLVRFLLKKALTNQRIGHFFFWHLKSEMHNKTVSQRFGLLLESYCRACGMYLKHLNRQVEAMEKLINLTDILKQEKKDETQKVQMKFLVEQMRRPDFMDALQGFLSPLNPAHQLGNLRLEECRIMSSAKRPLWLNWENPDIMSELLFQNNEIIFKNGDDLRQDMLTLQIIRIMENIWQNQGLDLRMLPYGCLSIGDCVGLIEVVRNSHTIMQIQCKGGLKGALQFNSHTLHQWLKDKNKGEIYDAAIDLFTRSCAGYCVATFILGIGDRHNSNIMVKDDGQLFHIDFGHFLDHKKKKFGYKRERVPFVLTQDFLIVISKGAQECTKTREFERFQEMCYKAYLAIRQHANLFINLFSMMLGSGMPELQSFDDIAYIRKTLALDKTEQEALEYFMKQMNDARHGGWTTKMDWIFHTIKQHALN
Sequence of PI3K alpha H1047R mutant (P27986 whole entry partner): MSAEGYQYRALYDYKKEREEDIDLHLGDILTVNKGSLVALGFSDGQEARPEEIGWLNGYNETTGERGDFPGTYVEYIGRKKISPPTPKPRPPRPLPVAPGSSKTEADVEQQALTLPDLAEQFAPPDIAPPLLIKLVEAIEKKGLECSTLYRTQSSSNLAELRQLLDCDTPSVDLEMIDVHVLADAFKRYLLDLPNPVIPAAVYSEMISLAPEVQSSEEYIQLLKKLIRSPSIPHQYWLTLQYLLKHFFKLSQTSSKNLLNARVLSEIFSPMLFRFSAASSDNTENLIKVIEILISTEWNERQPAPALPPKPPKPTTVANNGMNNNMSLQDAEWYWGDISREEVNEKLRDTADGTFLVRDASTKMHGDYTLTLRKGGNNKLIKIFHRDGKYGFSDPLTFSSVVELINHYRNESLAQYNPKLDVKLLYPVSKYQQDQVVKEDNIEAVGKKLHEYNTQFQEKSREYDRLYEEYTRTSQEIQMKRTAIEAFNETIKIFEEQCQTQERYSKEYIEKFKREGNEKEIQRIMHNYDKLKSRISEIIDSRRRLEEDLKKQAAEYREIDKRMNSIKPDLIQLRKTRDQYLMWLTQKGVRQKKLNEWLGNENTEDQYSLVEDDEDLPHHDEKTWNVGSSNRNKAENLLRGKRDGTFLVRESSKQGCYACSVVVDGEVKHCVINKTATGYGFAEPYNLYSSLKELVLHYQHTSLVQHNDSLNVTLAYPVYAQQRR

Question: How did the EC50 (EFO21) turn out when Cc1nc(-c2cn3c(n2)-c2ccc(-c4cnn(C(C)(C)C(N)=O)c4)cc2OCC3)n(C(C)C)n1 [GDC-0032, 2-(4-(2-(1-isopropyl-3-methyl-1H-1,2,4-triazol-5-yl)-5,6-dihydrobenzo[f]imidazo[1,2-d][1,4]oxazepin-9-yl)-1H-pyrazol-1-yl)-2-methylpropanamide] was run?
Answer: 10000 nM

Question: And the EC50 (LS-180)?
Answer: 795 nM

Question: And the EC50 (Calu-6)?
Answer: 10000 nM

Question: What about the EC50 (HDQ-P1) of the same compound?
Answer: 258 nM

Question: And the “PI3K alpha H1047R mutant” value (PI3K alpha H1047R mutant)?
Answer: 0.4x

Question: What about the EC50 (H23) of the same compound?
Answer: 2740 nM

Question: What about the EC50 (H441) of the same compound?
Answer: 10000 nM

Question: And the EC50 (H1568)?
Answer: 10000 nM

Question: And the EC50 (CAL-148)?
Answer: 375 nM

Question: And the EC50 [1]?
Answer: 8 nM

Question: And the EC50 (DLD-1)?
Answer: 2500 nM

Question: What about the EC50 (Caov3) of the same compound?
Answer: 4780 nM

Question: What about the EC50 (HOP18) of the same compound?
Answer: 77 nM

Question: And the EC50 (BT549)?
Answer: 1200 nM

Question: What about the EC50 (H292) of the same compound?
Answer: 274 nM

Question: And the EC50 (H661)?
Answer: 497 nM

Question: And the EC50 (SW403)?
Answer: 143 nM

Question: And the “% TGI@ day 21” value ([2]; 1.56 mg/kg)?
Answer: 53%

Question: What about the “% TGI@ day 21” value ([2]; 3.125 mg/kg) of the same compound?
Answer: 79%

Question: What about the “% TGI@ day 21” value ([2]; 6.25 mg/kg) of the same compound?
Answer: 98%

Question: What about the “% TGI@ day 21” value ([2]; 12.5 mg/kg) of the same compound?
Answer: 118%

Question: What about the “% TGI@ day 21” value ([2]; 25 mg/kg) of the same compound?
Answer: 138%

Question: And the “maximum TGI” value ([2]; daily dosing, end of dosing on day 21)?
Answer: 138%

Question: And the tumor response ([2]; doses of 12.5 and 25 mg/kg)?
Answer: Tumor regressions were observed

Question: And the EC50 (SW948)?
Answer: 62 nM

Question: What about the EC50 (AU565) of the same compound?
Answer: 93 nM

Question: What about the EC50 (HCC-1419) of the same compound?
Answer: 46 nM

Question: What about the EC50 (A2058) of the same compound?
Answer: 9240 nM

Question: And the EC50 (OVCAR3)?
Answer: 398 nM

Question: What about the EC50 (EVSA-T) of the same compound?
Answer: 1120 nM

Question: What about the anti-tumor efficacy ([3]; doses <12.5 mg/kg, daily dosing for 14 days) of the same compound?
Answer: not efficacious

Question: What about the anti-tumor response ([3]; highest dose tested (25 mg/kg), daily, 14 days) of the same compound?
Answer: tumor stasis

Question: And the tumor response ([4]; 22.5 mg/kg, after 10 days of treatment, versus vehicle)?
Answer: increased tumor regressions

Question: What about the tumor volume change ([4]; PO daily (QD), 20 days, nude mice) of the same compound?
Answer: dose dependent decrease in tumor volume

Question: What about the “% TGI@ day 21” value ([4]; 5.0 mg/kg) of the same compound?
Answer: 57%

Question: What about the “% TGI@ day 21” value ([4]; 10 mg/kg) of the same compound?
Answer: 83%

Question: And the “% TGI@ day 21” value ([4]; 20 mg/kg)?
Answer: 83%

Question: And the tumor response ([5]; 25 mg/kg, end of treatment on day 7, versus vehicle)?
Answer: increased tumor regressions

Question: What about the tumor volume change ([5]; PO daily (QD), 7 days) of the same compound?
Answer: dose dependent decrease in tumor volume

Question: What about the tumor volume change [6] of the same compound?
Answer: dose-dependent decrease in tumor volume

Question: And the tumor response ([7]; 25 mg/kg, end of treatment on day 21, versus vehicle)?
Answer: increased tumor regressions

Question: What about the tumor volume change ([7]; PO daily (QD), 21 days, SCID beige mice) of the same compound?
Answer: dose dependent decrease in tumor volume

Question: What about the tumor volume change [8] of the same compound?
Answer: dose-dependent decrease in tumor volume

Question: And the tumor volume change [9]?
Answer: dose-dependent decrease in tumor volume

Question: And the EC50 (C32)?
Answer: 5810 nM

Question: What about the EC50 (MDST8) of the same compound?
Answer: 4010 nM

Question: And the EC50 (HOP62)?
Answer: 3090 nM

Question: And the EC50 (HCC-1143)?
Answer: 2970 nM
